# Reference: patent publication US10745395B2, “Compounds for their use as drugs for the treatment and/or the prevention of infection(s) caused by biofilm-forming bacteria” (CENTRE NATIONAL DE LA RECHERCHE SCIENTIFIQUE, priority 2014, dated 2020)
# Legend:
# Assay type in all cases: cell-based, Pseudomonas aeruginosa
# [1] = system: P. aeruginosa strain PAR 50 biofilm; experiment: Mature biofilm model, Congo red staining; conditions: for absorbance (Congo red, biofilm development): mature biofilm, compound added 48 h after induction of biofilm
# Procedure: (§1) Biofilm quantity was determined using Congo red dye according to a modified procedure described by Allison et al. (Allison G C, Sutherland I W. A staining technique for bacteria and its correlation to extracellular carbohydrate production. J Microbiol Meth 2, 93-99 (1984)).
# (§2) Briefly, at different time points (0, 6, 18, 24, 48 and 72 hours), the culture medium was gently removed from wells by using the pipette and immediately 200 μl of 0.1% Congo red solution was added. The plates were left for 30 minutes at room temperature and then 10 minutes before the end of staining, the plate was centrifuged for 10 minutes at 2000 rpm and then washed twice with buffered saline to remove unbound dye. Absorbance was measured at λ=492 nm wavelength using spectrophotometer (Awarness Technology Inc., Palm City, Fla., USA). All measurements were performed in triplicates and mean values±SD are given.
# (§3) Mature biofilm model: the tested substances were added 48 hours after adherence of bacteria to the wells in a 96-well plate. The growth conditions of P. aeruginosa were exactly the same, as described above for the early biofilm model.
# (§4) After the addition of iminosugars (compounds 1, 2, 3 and 4), the biofilm formation and the number of viable bacteria were checked in the following time intervals: 48, 48.5, 56, 72, 96 hours.
# [2] = system: P. aeruginosa strain PAR 5 biofilm; experiment: Mature biofilm model, Congo red staining; conditions: for absorbance (Congo red, biofilm development): mature biofilm, compound added 48 h after induction of biofilm
# Procedure: as §1, §2, §3, §4
# [3] = system: P. aeruginosa strain PAR 20 biofilm; experiment: Mature biofilm model, Congo red staining; conditions: for absorbance (Congo red, biofilm development): mature biofilm, compound added 48 h after induction of biofilm
# Procedure: as §1, §2, §3, §4
# [4] = system: P. aeruginosa strain PAR 20 biofilm; experiment: Reduction of biofilm growth (percent vs culture control)
# From the text: (§5) FIG. 4B represents the effect of the tested compounds (1, 2, 3 and 4) on exopolysaccharide biosynthesis in the early stages and mature P. aeruginosa biofilm formation, strain PAR 20. The abscissa represents the time (in hours) in order to differentiate early biofilm and mature biofilm, and the ordinate represents the percentage of the biofilm reduction.
# (§6) Early biofilm model: formation of early biofilm under influence of the tested substances was observed by filling wells of a 96-well plate with 20 μl of P. aeruginosa suspension and 180 μl of TSB, as described above. Tested iminosugars (compounds 1, 2, 3 and 4) were added immediately after setting-up the bacteria at a final concentration of 0.9 mM. Then, the plate was gently mixed and incubated for 48 hours at 37° C.
# as §3
# (§7) The effect of the tested compounds (1, 2, 3 and 4) on the reduction of biofilm growth has also been studied on the three P. aeruginosa strains PAR 5, PAR 20, PAR 50.
# (§8) (Percent decrease in biofilm thickness was obtained as a mean value from 3 consecutive measurements of the Congo Red stained biofilm using spectrophotometer after addition of the tested iminosugars in comparison to control regarded as 100%).
# [5] = system: P. aeruginosa strain PAR 5 biofilm; experiment: as above
# From the text: as §5, with “4A” for “4B”, “5.” for “20.”
# as §6, §3, §7, §8
# [6] = system: P. aeruginosa strain PAR 50 biofilm; experiment: Early biofilm model, Congo red staining; conditions: for absorbance (Congo red, biofilm formation): early biofilm, 0.9 mM, 492 nm
# Procedure: (§9) P. aeruginosa biofilm was set-up in sterile plastic 96-well plates with adherent surface (Greiner Bio-One, USA).
# (§10) Twenty microliter quantities of the bacterial stock suspensions, prepared as described above, were added to each well followed with 180 μl of sterile TSB. Final concentration of the bacteria was 1×10^8 CFU/ml.
# (§11) The plates were centrifuged for 10 minutes at 2000 rpm to sediment bacteria on the bottom of each well and then incubated for 72 hours (37° C., aerobic conditions).
# as §1, §2, §6
# (§12) Biofilm formation and the number of viable bacteria were checked in parallel in the following time intervals: 0, 0.5, 8, 24, 48 hours, in accordance with the procedure described above. Biofilm thickness was estimated by staining it with Cango Red and measuring optical density while number of viable bacteria was performed using the standard viable count method. (Allison G C, Sutherland I W. A staining technique for bacteria and its correlation to extracellular carbohydrate production. J Microbiol Meth 2, 93-99 (1984)).
# (§13) P. aeruginosa suspension cultures in TSB broth alone were used as a control.
# [7] = system: P. aeruginosa strain PAR 5 biofilm; experiment: Early biofilm model, Congo red staining; conditions: for absorbance (Congo red, biofilm formation): 0.9 mM, 492 nm
# Procedure: as §9, §10, §11, §1, §2, §6, §12, §13
# [8] = system: P. aeruginosa strain PAR 20 biofilm; experiment: Early biofilm model, Congo red staining; conditions: for absorbance (Congo red, biofilm formation): early biofilm, 0.9 mM, 492 nm
# Procedure: as §9, §10, §11, §1, §2, §6, §12, §13
# [9] = system: P. aeruginosa strain PAR 50 biofilm; experiment: Reduction of biofilm growth (percent vs culture control)
# From the text: as §5, with “4C” for “4B”, “50.” for “20.”
# as §6, §3, §7, §8
# [10] = system: P. aeruginosa strain PAR 20; experiment: Number of viable bacteria in early and mature biofilm (viable count)
# Procedure: as §12, §4
# (§14) Numbers of viable bacteria contained in the early and mature biofilm were estimated on separate plates with wells filled with tested P. aeruginosa strains as described above (PAR 5, PAR 20, PAR 50).
# (§15) At the same time intervals, biofilm content in each well was removed and mixed by multiple pippeting and transferred to sterile tubes. Then decimal dilutions of the bacterial suspension were made in TSB broth, plated on McConkey Agar (Oxoid), and incubated at 37° C. for 24 hours.
# (§16) Numbers of colonies grown on platter were counted and total numbers of the viable bacteria calculated as colony forming units (CFU) per ml.
# (§17) The results depict logs of CFU/ml for three P. aeruginosa strains: PAR 5, PAR 20 and PAR 50 measured at different time intervals (0 hours, 8 hours, 24 hours, 48 hours, 56 hours, 72 hours and 96 hours). The detection limit is 100 CFU/ml.
# [11] = system: P. aeruginosa strain PAR 5; experiment: as above
# Procedure: as §12, §4, §14, §15, §16, §17
# [12] = system: P. aeruginosa strain PAR 50; experiment: as above
# Procedure: as §12, §4, §14, §15, §16, §17
# [13] = in comparison with culture control
smiles,measurement,setting,value
"COc1ccc(C[C@@H]2CCC[C@@H]3[C@H](O)[C@@H](O)[C@H](CO)N23)cc1 [Compound 3, (1S,2S,3S,5S,9R)-1,2-dihydroxy-3-hydroxymethyl-5-p-methoxybenzylindolizidine]",influence on mature biofilm formation,[1],weak influence
same,"absorbance (Congo red, biofilm development)",[1]; 48 hours,about 1.25 a.u.
same,"absorbance (Congo red, biofilm development)",[1]; 56 hours,about 1.0 a.u.
same,"absorbance (Congo red, biofilm development)",[1]; 72 hours,about 2.0 a.u.
same,"absorbance (Congo red, biofilm development)",[1]; 96 hours,about 2.5 a.u.
same,influence on mature biofilm formation,[2],weak influence
same,"absorbance (Congo red, biofilm development)",[2]; 48 hours,about 0.75 a.u.
same,"absorbance (Congo red, biofilm development)",[2]; 56 hours,about 1.25 a.u.
same,"absorbance (Congo red, biofilm development)",[2]; 72 hours,about 1.25 a.u.
same,"absorbance (Congo red, biofilm development)",[2]; 96 hours,about 1.25 a.u.
same,influence on mature biofilm formation,[3],weak influence
same,"absorbance (Congo red, biofilm development)",[3]; 48 hours,about 0.6 a.u.
same,"absorbance (Congo red, biofilm development)",[3]; 56 hours,about 1.1 a.u.
same,"absorbance (Congo red, biofilm development)",[3]; 72 hours,about 0.75 a.u.
same,"absorbance (Congo red, biofilm development)",[3]; 96 hours,about 1.5 a.u.
same,reduction of biofilm growth,[4]; 8 hours of incubation,about 50%
same,reduction of biofilm growth,[4]; 24 hours of incubation,about 60%
same,reduction of biofilm growth,[4]; 48 hours of incubation,about 0%
same,reduction of biofilm growth,[4]; 72 hours of incubation,about 20%
same,effect on biofilm growth,[4]; notably an early biofilm,can reduce the biofilm growth
same,reduction of biofilm growth,[5]; 8 hours of incubation,about 90%
same,reduction of biofilm growth,[5]; 24 hours of incubation,about 90%
same,reduction of biofilm growth,[5]; 48 hours of incubation,about 25%
same,reduction of biofilm growth,[5]; 72 hours of incubation,about 10%
same,effect on biofilm growth,[5]; notably an early biofilm,can reduce the biofilm growth
same,"absorbance (Congo red, biofilm formation)",[6]; 8 hours,about 0.8 a.u.
same,"absorbance (Congo red, biofilm formation)",[6]; 24 hours,about 0.25 a.u.
same,"absorbance (Congo red, biofilm formation)",[6]; 48 hours,about 0.25 a.u.
same,effect on formation of an early biofilm,[6]; [13],inhibit the formation of an early biofilm
same,"biofilm formation at 8 hours, 24 hours and 48 hours",[7]; early biofilm,no biofilm formation
same,"absorbance (Congo red, biofilm formation)","[7]; early biofilm, 8 hours",about 0.25 a.u.
same,"absorbance (Congo red, biofilm formation)","[7]; early biofilm, 24 hours",about 0.25 a.u.
same,"absorbance (Congo red, biofilm formation)","[7]; early biofilm, 48 hours",about 0.25 a.u.
same,effect on formation of an early biofilm,[7]; [13],inhibit the formation of an early biofilm
same,"absorbance (Congo red, biofilm formation)",[8]; 8 hours,about 0.75 a.u.
same,"absorbance (Congo red, biofilm formation)",[8]; 24 hours,about 0.7 a.u.
same,"absorbance (Congo red, biofilm formation)",[8]; 48 hours,about 0.7 a.u.
same,effect on formation of an early biofilm,[8]; [13],inhibit the formation of an early biofilm
same,reduction of biofilm growth,[9]; 8 hours of incubation,about 45%
same,reduction of biofilm growth,[9]; 24 hours of incubation,about 45%
same,reduction of biofilm growth,[9]; 48 hours of incubation,about 5%
same,reduction of biofilm growth,[9]; 72 hours of incubation,about 20%
same,effect on biofilm growth,[9]; notably an early biofilm,can reduce the biofilm growth
same,number of viable P. aeruginosa,"[10]; early biofilm, 0 h",5 × 10^6 CFU/ml
same,number of viable P. aeruginosa,"[10]; early biofilm, 8 h",3 × 10^7 CFU/ml
same,number of viable P. aeruginosa,"[10]; early biofilm, 24 h",5 × 10^8 CFU/ml
same,number of viable P. aeruginosa,"[10]; early biofilm, 48 h",3 × 10^9 CFU/ml
same,number of viable P. aeruginosa,"[10]; mature biofilm, 56 h",3 × 10^8 CFU/ml
same,number of viable P. aeruginosa,"[10]; mature biofilm, 72 h",7 × 10^7 CFU/ml
same,number of viable P. aeruginosa,"[10]; mature biofilm, 96 h",7 × 10^7 CFU/ml
same,number of viable P. aeruginosa,"[11]; early biofilm, 0 h",6 × 10^6 CFU/ml
same,number of viable P. aeruginosa,"[11]; early biofilm, 8 h",4 × 10^7 CFU/ml
same,number of viable P. aeruginosa,"[11]; early biofilm, 24 h",1 × 10^7 CFU/ml
same,number of viable P. aeruginosa,"[11]; early biofilm, 48 h",2 × 10^6 CFU/ml
same,number of viable P. aeruginosa,"[11]; mature biofilm, 56 h",3 × 10^8 CFU/ml
same,number of viable P. aeruginosa,"[11]; mature biofilm, 72 h",2 × 10^8 CFU/ml
same,number of viable P. aeruginosa,"[11]; mature biofilm, 96 h",1 × 10^9 CFU/ml
same,number of viable P. aeruginosa,"[12]; early biofilm, 0 h",4 × 10^7 CFU/ml
same,number of viable P. aeruginosa,"[12]; early biofilm, 8 h",1 × 10^8 CFU/ml
same,number of viable P. aeruginosa,"[12]; early biofilm, 24 h",6 × 10^8 CFU/ml
same,number of viable P. aeruginosa,"[12]; early biofilm, 48 h",6 × 10^8 CFU/ml
same,number of viable P. aeruginosa,"[12]; mature biofilm, 56 h",4 × 10^8 CFU/ml
same,number of viable P. aeruginosa,"[12]; mature biofilm, 72 h",5 × 10^9 CFU/ml
same,number of viable P. aeruginosa,"[12]; mature biofilm, 96 h",8 × 10^9 CFU/ml
